Calls of active or inactive are those of the source. The rule behind the calls is not given here.
Tests used:
[1] = tested on: BGC-823; assay: Antiproliferative activity against human BGC-823 cells assessed as inhibition of cell growth incubated for 72 hrs by CCK8 assay; type: functional, cell-based; details: BGC-823, 72 h
[2] = tested on: MDA-MB-231; assay: Antiproliferative activity against human MDA-MB-231 cells assessed as inhibition of cell growth incubated for 72 hrs by CCK8 assay; type: functional, cell-based; details: MDA-MB-231, 72 h
[3] = Antiproliferative activity against human MCF-10A cells assessed as inhibition of cell growth incubated for 72 hrs by CCK8 assay; type: toxicity, cell-based
[4] = tested on: MDA-MB-231; assay: Antiproliferative activity against human MDA-MB-231 cells assessed as inhibition of cell growth measured after 24 to 96 hrs by CCK8 assay; type: functional, cell-based; details: dose 1-4 µM, time 24-96 hrs
[5] = tested on: MDA-MB-231; assay: Induction of cell cycle arrest in human MDA-MB-231 cells assessed as accumulation of cells at G0/G1 phase at 1 uM incubated for 48 hrs by PI staining based flow cytometry (reference value: 48.33%); type: functional
[6] = tested on: MDA-MB-231; assay: Induction of cell cycle arrest in human MDA-MB-231 cells assessed as accumulation of cells at G0/G1 phase at 4 uM incubated for 48 hrs by PI staining based flow cytometry (reference value: 48.33%); type: functional
[7] = tested on: MDA-MB-231; assay: Induction of cell cycle arrest in human MDA-MB-231 cells assessed as downregulation of CDK4 protein expression at 1 to 4 uM incubated for 48 hrs by western blot analysis; type: functional, cell-based; details: dose 1-4 µM
[8] = tested on: MDA-MB-231; assay: Induction of cell cycle arrest in human MDA-MB-231 cells assessed as downregulation of Cyclin D1 protein expression at 1 to 4 uM incubated for 48 hrs by western blot analysis; type: functional, cell-based; details: dose 1-4 µM
[9] = tested on: MDA-MB-231; assay: Induction of cell cycle arrest in human MDA-MB-231 cells assessed as upregulation of p21 protein expression at 1 to 4 uM incubated for 48 hrs by western blot analysis; type: functional, cell-based; details: dose 1-4 µM
[10] = tested on: MDA-MB-231; assay: Induction of apoptosis in human MDA-MB-231 cells assessed as increase in apoptotic cells at 2 uM incubated for 48 hrs by AnnexinV-FITC/PI staining based flow cytometry (reference value: 5.24%); type: functional
[11] = tested on: MDA-MB-231; assay: Induction of apoptosis in human MDA-MB-231 cells assessed as increase in apoptotic cells at 4 uM incubated for 48 hrs by AnnexinV-FITC/PI staining based flow cytometry (reference value: 5.24%); type: functional
[12] = tested on: MDA-MB-231; assay: Induction of apoptosis in human MDA-MB-231 cells assessed as increase in apoptotic cells at 2 uM incubated for 24 hrs by AnnexinV-FITC/PI staining based flow cytometry (reference value: 5.24%); type: functional
[13] = tested on: MDA-MB-231; assay: Induction of apoptosis in human MDA-MB-231 cells assessed as increase in apoptotic cells at 2 uM incubated for 72 hrs by AnnexinV-FITC/PI staining based flow cytometry (reference value: 5.24%); type: functional
[14] = tested on: MDA-MB-231; assay: Induction of apoptosis in human MDA-MB-231 cells assessed as increase in Bax protein expression measured after 48 hrs by western blot analysis; type: functional, cell-based; details: dose 1-4 µM
[15] = tested on: MDA-MB-231; assay: Induction of apoptosis in human MDA-MB-231 cells assessed as decrease in Bcl-2 protein expression measured after 48 hrs by western blot analysis; type: functional, cell-based; details: dose 1-4 µM
[16] = tested on: MDA-MB-231; assay: Induction of apoptosis in human MDA-MB-231 cells assessed as increase in ratio of Bax to Bcl-2 protein expression measured after 48 hrs by western blot analysis; type: functional, cell-based; details: dose 1-4 µM
[17] = tested on: MDA-MB-231; assay: Induction of apoptosis in human MDA-MB-231 cells assessed as increase in cleaved caspase-9 protein expression at 1 to 4 uM incubated for 48 hrs by western blot analysis; type: functional, cell-based; details: dose 1-4 µM
[18] = tested on: MDA-MB-231; assay: Induction of apoptosis in human MDA-MB-231 cells assessed as increase in cleaved caspase-3 protein expression at 1 to 4 uM incubated for 48 hrs by western blot analysis; type: functional, cell-based; details: dose 1-4 µM
[19] = tested on: MDA-MB-231; assay: Induction of mitochondrial membrane potential depolarization in human MDA-MB-231 cells assessed as decrease in ratio of red to green fluorescence intensity at 1 to 4 uM incubated for 24 hrs by JC-1 staining based flow cytometry; type: functional, cell-based; details: dose 1-4 µM
[20] = tested on: MDA-MB-231; assay: Induction of reactive oxygen species generation in human MDA-MB-231 cells incubated for 24 hrs by DCFH-DA staining based flow cytometry; type: functional, cell-based; details: dose 1-4 µM
[21] = tested on: MDA-MB-231; assay: Induction of reactive oxygen species generation in human MDA-MB-231 cells at 2 uM incubated for 24 hrs by DCFH-DA staining based flow cytometry relative to control; type: functional
[22] = tested on: MDA-MB-231; assay: Downregulation of PI3K protein expression in human MDA-MB-231 cells incubated for 48 hrs by western blot analysis; type: functional, cell-based; details: dose 1-4 µM
[23] = tested on: MDA-MB-231; assay: Downregulation of Akt protein expression in human MDA-MB-231 cells incubated for 48 hrs by western blot analysis; type: functional, cell-based; details: dose 1-4 µM
[24] = tested on: MDA-MB-231; assay: Downregulation of mTOR protein expression in human MDA-MB-231 cells incubated for 48 hrs by western blot analysis; type: functional, cell-based; details: dose 1-4 µM
[25] = Inhibition of PI3K/Akt/mTOR signaling in human MDA-MB-231 cells assessed as reduction in Akt phosphorylation at Ser473 residue incubated for 48 hrs by western blot analysis; type: cell-based; details: dose 1-4 µM
[26] = Inhibition of PI3K/Akt/mTOR signaling in human MDA-MB-231 cells assessed as reduction in Akt phosphorylation at Thr308 residue incubated for 48 hrs by western blot analysis; type: cell-based; details: dose 1-4 µM
[27] = Inhibition of PI3K/Akt/mTOR signaling in human MDA-MB-231 cells assessed as reduction in mTOR phosphorylation at Ser2448 residue incubated for 48 hrs by western blot analysis; type: cell-based; details: dose 1-4 µM
[28] = Inhibition of PI3K/Akt/mTOR signaling in human MDA-MB-231 cells assessed as reduction in mTOR phosphorylation at Ser2481 residue incubated for 48 hrs by western blot analysis; type: cell-based; details: dose 1-4 µM
[29] = Inhibition of PI3K/Akt/mTOR signaling in human MDA-MB-231 cells assessed as upregulation of PTEN expression incubated for 48 hrs by western blot analysis; type: cell-based; details: dose 1-4 µM
[30] = tested on: MDA-MB-231; assay: Downregulation of PI3K protein expression in human MDA-MB-231 cells at 2 uM incubated for 72 hrs in presence of IGF-1 by western blot analysis; type: functional, cell-based
[31] = tested on: MDA-MB-231; assay: Downregulation of mTOR protein expression in human MDA-MB-231 cells at 2 uM incubated for 72 hrs in presence of IGF-1 by western blot analysis; type: functional, cell-based
[32] = Inhibition of PI3K/Akt/mTOR signaling in human MDA-MB-231 cells assessed as reduction in Akt phosphorylation at Ser473 residue at 2 uM incubated for 72 hrs in presence of IGF-1 by western blot analysis; type: cell-based
[33] = Inhibition of PI3K/Akt/mTOR signaling in human MDA-MB-231 cells assessed as reduction in Akt phosphorylation at Thr308 residue at 2 uM incubated for 72 hrs in presence of IGF-1 by western blot analysis; type: cell-based
[34] = Inhibition of PI3K/Akt/mTOR signaling in human MDA-MB-231 cells assessed as reduction in mTOR phosphorylation at Ser2448 residue at 2 uM incubated for 72 hrs by western blot analysis; type: cell-based
[35] = Inhibition of PI3K/Akt/mTOR signaling in human MDA-MB-231 cells assessed as reduction in mTOR phosphorylation at Ser2481 residue at 2 uM incubated for 72 hrs by western blot analysis; type: cell-based

## Fc1cc(F)cc(C2OCCc3c2[nH]c2ccccc32)c1 (stereo not given)
[1]
  IC50: 9.11 µM
[2]
  IC50: 2290 nM
[3]
  IC50 at 72 h: 24.6 µM
[4]
  Activity: Dose-Dependent Effect
[5]
  Activity: 54.33%
[6]
  Activity: 66.67%
[7]
  Activity: Active
[8]
  Activity: Active
[9]
  Activity: Active
[10]
  Activity: 22.17%
[11]
  Activity: 37.86%
[12]
  Activity: 13.14%
[13]
  Activity: 31.34%
[14]
  Activity: Dose-Dependent Effect
[15]
  Activity: Dose-Dependent Effect
[16]
  Activity: Dose-Dependent Effect
[17]
  Activity: Active
[18]
  Activity: Active
[19]
  Activity: Active
[20]
  Activity: Dose-Dependent Effect
[21]
  fold change (FC): 1.73
[22]
  inhibition: Dose-Dependent Effect
[23]
  inhibition: Dose-Dependent Effect
[24]
  inhibition: Dose-Dependent Effect
[25]
  inhibition: Dose-Dependent Effect
[26]
  inhibition: Dose-Dependent Effect
[27]
  inhibition: Dose-Dependent Effect
[28]
  inhibition: Dose-Dependent Effect
[29]
  inhibition: Dose-Dependent Effect
[30]
  inhibition: inactive
[31]
  inhibition: inactive
[32]
  inhibition: inactive
[33]
  inhibition: inactive
[34]
  inhibition: inactive
[35]
  inhibition: inactive

Source: ChEMBL document CHEMBL5233281, “Design, synthesis and biological evaluation of novel 1,3,4,9-tetrahydropyrano[3,4-b]indoles as potential treatment of triple negative breast cancer by suppressing PI3K/AKT/mTOR pathway” (Bioorg Med Chem, 2021)
